According to patent US20150005236A1, “USE OF BETA-NERVE GROWTH FACTOR FOR INDUCING OVULATION IN MAMMALS” (INSTITUT NATIONAL DE LA RECHERCHE AGRONOMIQUE, priority 2012, published 2015):
Several values for one entry are separate records, joined by “and”; a condition that tells them apart may be missing. Equal entries are not always repeated. Marks after values point to notes of the source that are not given here.

Tests used:
female alpacas [1] = assay: Induction of ovulation in alpacas (transrectal ultrasonography, plasma progesterone RIA); format: in vivo, alpaca; details: for CL diameter: corpus luteum on day 8 following i.m. treatment; for CL diameter / Progesterone conc.: mean ± sem; for corpus lutea detected, % of alpacas: day 8 following treatment; for corpus lutea detected, % of alpacas / dominant follicle absent, % of female alpacas: n=5/group; for Progesterone conc.: plasma, day 8 following i.m. treatment, animals that did not ovulate excluded; for dominant follicle absent, % of female alpacas: ultrasonography 28-30 h following treatment
Experimental: The emergence of dominant follicles was synchronised with the 0.8 ml (200 μg) prostaglandin F2α (Estrumate®, Intervet) i.m. followed by 1 ml (4 μg) of Buserelin (Receptal®, Intervet) i.m. 24 h later, then luteolysis was induced 11 days after induced ovulation with 0.8 ml Estrumate®.
To determine the presence of a dominant follicle, females were restrained in sternal recumbency and examined by transrectal ultrasonography using an Aloka SSD-500 scanner with 7.5 MHz linear array transducer (Aloka Co., Japan). The ovaries of […] were scanned. Females with a newly emerged dominant follicle of 6-10 mm in diameter were randomly assigned to receive 1 of 4 treatments: (1) 1 ml 0.9% saline in, (n 5), (2) 1 ml (4 μg) Receptal® (Intervet) i.m (n=5), (3) 2 ml alpaca's seminal plasma i.m. collected as described above for Experiment ˜1 (n=5), (4) 1 mg recombinant active human β-NGF protein (Sino Biological, Japan) Lm. (n=5).
Animals were examined by transrectal ultrasonography 28-30 h following treatments to detect ovulation. Ovulation was defined as the absence of the dominant follicle that was observed during the previous scan at the time of treatment. Ultrasonography was also repeated 8 days following treatment, to confirm ovulation and determine the size of the corpus luteum.
(§1) Female alpacas were cannulated and jugular venous blood samples (5 ml) were collected for detection of luteinising hormone immediately before treatment, every 30 min for 4 h, then every 1 h for 4 h and finally at 12 h post-treatment. Jugular venous blood samples (5 ml) were also collected on day 8 at the time of ultrasonography for detection of plasma progesterone. Samples were placed in heparinised tubes, centrifuged at 2000×g for 10 min, the plasma decanted and stored at −20° C. until analysis.
(§2) Plasma LH concentration were determined using a RIA. Plasma progesterone concentrations were determined using a commercial double antibody RIA kit (Coat-a-Count).
International, Hemel Hempstead, UK) with post-hoc comparisons using the least significant difference (LSD) test where appropriate. Far all analyses P<0.05 was considered significant.
In this experiment, female alpacas (n 5/group) were administered i.m. with (1) 1 ml 0.9% saline, (2) 1 ml of the GnRH agonist Receptal® (3) 2 ml alpaca seminal plasma, or (4) 1 mg human β-NGF. Ovulation was detected by transrectal ultrasonography […] following treatment and confirmed by plasma progesterone concentrations.

female alpacas [2] = assay: LH concentration in peripheral blood of female alpacas (RIA); format: in vivo, alpaca; details: for LH concentration in peripheral blood: 12 hours after i.m. injection, versus saline; for peak of LH, time after injection: i.m. injection, peripheral blood
Experimental: as §1, §2
The evolution of the concentration of LH in peripheral blood was assessed for 12 hours after the injections.

female rabbits = assay: Induction of ovulation in female rabbits; format: in vivo, rabbit; details: for Ovulation (%): ovulation frequency, i.m. injection
Experimental: A herd of 83 female rabbits of proven fertility was used in this experiment.
The female rabbits were synchronized by an injection of eGG 48 hours before insemination. Then they were inseminated with a mixture of semen from several males. The same mixture was used for all females.
The female rabbits were killed 48 hours after insemination. The ovaries were collected to proceed to counting the corpora lutea, pre-ovulatory follicles of diameter higher than 1 mm and atretic follicles, and to identify potential pseudopregnant females. The oviducts were infused in order to count oocytes and embryos and to evaluate the developmental stage of the latter (number of blastomeres of the embryo).
The results were analysed with the software SAS using a fixed-effects variance analysis, taking into account the fixed effect of the treatment (4 levels: GnRH, β-NGF, PS and saline).

[3] = test system: glial cells associated with GnRH neurons; assay: Immunohistochemistry of the relations between GnRH neurons and glial cells; format: cell-based, mouse; details: 20 min application at 75 nM, then K+ stimulation; not in control conditions
Experimental: An immunohistochemical approach was used to characterize the cells present in the culture, using anti-GnRH antibody for the GnRH neurons, anti-S100b antibody for the glial cells and anti-P75 antibody (P75 is a NGF-specific receptor). The analysis was carried out by confocale microscopy.
Nasal explants were fixed in 4% formaldehyde [45-60 min, rinsed in PBS (3×10 min)], blocked (1 h, 10% normal goat serum, 0.3% Triton X-100, and 0.1% sodium azide), rinsed in PBS (3×8 min), and incubated overnight in anti-GnRH-1 (1:3000, SW-1). Antibodies were diluted in PBS containing 10% normal goat serum, 0.3% Triton X-100, and 0.1% sodium azide. The next day, the explants were rinsed in PBS (3×8 min), incubated in secondary antibody ant rabbit Alexa 546 (1:500, 1 h; Molecular Probes, Inc., Eugene Oreg.) and rinsed in PBS (4×8 min). Explants incubated with fluorescent dies were mounted with Vector Shield (Vector Laboratories).
The relations between GnRH neurons and glial cells have been analyzed by immunohistochemistry after 20 min of recording in calcic imaging, for the control and after 20 min of application of β-NGF at 75 nM in the culture medium, and after K^+ stimulation. The glial cells retract after K^+ stimulation in the presence of β-NGF, but not in control conditions.

mouse GnRH neurons = assay: Calcium imaging of primary culture of GnRH neurons; format: cell-based
Source text: A model of primary culture of GnRH neurons has been developed from explants of olfactory placodes of mouse embryos (Constantin et al., 2009). This model has three stages of in vitro development: from 1 to 3 days, intra-explant migration, corresponding to an in vivo intranasal migration; from 3 to […] days, out-of explant migration, corresponding to an in vivo intracerebral development; from 7 to 15 days, occurrence of the pulsatile secretion, corresponding to neuronal and network maturation.
This experiment was carried out between 7 and 15 days of in vitro development corresponding to a stage of mature GnRH neurons having a pulsatile GnRH secretion.
Embryos were obtained from timed pregnant animals. Nasal pits of embryonic d 11.5 staged Swiss mice were isolated under aseptic conditions and refrigerated for 1 h in Gey's balanced salt solution (Eurobio, Les Ulis, France) enriched with glucose (Sigma-Aldrich Corp., St. Louis, Mo.). Nasal explants were adhered onto coverslips by a chicken plasma (local source)/thrombin (Sigma-Aldrich) clot. […]
These variations were measured by “time lapse” imaging in the primary culture of GnRH neurons. A quantitative analysis was carried out for single neurons but also overall for a group of neurons constituting part of the network. […]
Calcium Green-1 was visualized using an inverted microscope (DM-IRB; Leica. Microsystems GmbH, Wetzlar, Germany), through a ×20 fluorescence objective, and acquired using a cooled intensified charge-coupled device camera (CoolSNAP fx; Rapper Instruments, Photometrics, Tucson, Ariz.). Experiments were piloted by Metafluor (Molecular Devices, Downingtown, Pa.), controlling the shutter and the acquisition (every 20 sec for 3 h), Excitation wavelengths were provided through a medium-width excitation bandpass filter at 465-495 nm, and emission was monitored through a 40-nm bandpass centered on 535 nm. Fluctuations in [Ca2+]i were analyzed a posteriori with Metafluor software. […] Calcium Green-1 fluorescence intensity was plotted and analyzed with Excel (Microsoft Corp., Redmond, Wash.). […]

[4] = 48 hours after insemination, estimated mean values

In the case of CCNC(=O)[C@@H]1CCCN1C(=O)[C@H](CCCNC(=N)N)NC(=O)[C@H](CC(C)C)NC(=O)[C@@H](COC(C)(C)C)NC(=O)[C@H](Cc1ccc(O)cc1)NC(=O)[C@H](CO)NC(=O)[C@H](Cc1c[nH]c2ccccc12)NC(=O)[C@H](Cc1cnc[nH]1)NC(=O)[C@@H]1CCC(=O)N1 [Receptal, Buserelin, reference compound], the CL diameter (female alpacas [1]) is reported as 9.3 ± 1.49^a mm, the “corpus lutea detected, % of alpacas” value (female alpacas [1]) is reported as 80% and the Progesterone conc. (female alpacas [1]) is reported as 4.01 ± 0.897^b ng/ml. The “dominant follicle absent, % of female alpacas” value (female alpacas [1]) was 80%, the “LH concentration in peripheral blood” value (female alpacas [2]) was “significant increase” and the “peak of LH, time after injection” value (female alpacas [2]) was 3 h.

“GnRH: 0.2 ml of Fertagyl® containing 20 μg of GnRH (Gonadotrophine Releasing Hormone), positive control (QHWSYGLRPG; Gonadoliberin-1; UniProt P01148 24-33, looked up)” was tested, and the Collected embryos (female rabbits; [4]) was 12.09^a, the “Corpora lutea (number by injected female rabbit)” value (female rabbits; [4]) was 13.82^a and the Haemorrhagic follicles (female rabbits; [4]) was 1.36^a. The “Ovulation (%)” value (female rabbits) was 100% and 100^a %.

For beta-Nerve Growth Factor [β-NGF], the “Ovulation (%)” value (female rabbits) was 25% and 25.0^b %, the CL diameter (female alpacas [1]) was 10.3 ± 1.03^a mm and the “corpus lutea detected, % of alpacas” value (female alpacas [1]) was 80%. For the same molecule, the Progesterone conc. (female alpacas [1]) was 3.28 ± 0.681^b ng/ml, the “dominant follicle absent, % of female alpacas” value (female alpacas [1]) was 80% and the “glial cells after K+ stimulation” value [3] was “retract”. The “percent of synchronization events involving more than 70% of the recorded GnRH neurons” value (mouse GnRH neurons; 75 nM in the culture medium) was “increase”, the “synchronization of calcic events between GnRH neurons” value (mouse GnRH neurons; 20 min after application at 75 nM) was “increased” and the “fold decrease in average time between two calcium events” value (mouse GnRH neurons; 20 min after application at 75 nM in the culture medium, versus control (about 15 s)) was 3. The “time to LH surge after treatment” value (female alpacas [2]; 1 mg i.m.) was no more than 8 h, the “LH concentration in peripheral blood” value (female alpacas [2]) was “significant increase” and the “peak of LH, time after injection” value (female alpacas [2]) was 3 h.
